Experiment [1] concerns the target T1, COX-1 (purified PGHS-1 from ram seminal vesicles) (Ovis aries, UniProt P05979).
T1 construct: Purified PGHS-1 from ram seminal vesicles for COX-1; purchased Cayman Chemical Co., Ann Arbor, MI, USA; host or cells: ram seminal vesicles (tissue-purified)
T1 sequence (P05979 25-600): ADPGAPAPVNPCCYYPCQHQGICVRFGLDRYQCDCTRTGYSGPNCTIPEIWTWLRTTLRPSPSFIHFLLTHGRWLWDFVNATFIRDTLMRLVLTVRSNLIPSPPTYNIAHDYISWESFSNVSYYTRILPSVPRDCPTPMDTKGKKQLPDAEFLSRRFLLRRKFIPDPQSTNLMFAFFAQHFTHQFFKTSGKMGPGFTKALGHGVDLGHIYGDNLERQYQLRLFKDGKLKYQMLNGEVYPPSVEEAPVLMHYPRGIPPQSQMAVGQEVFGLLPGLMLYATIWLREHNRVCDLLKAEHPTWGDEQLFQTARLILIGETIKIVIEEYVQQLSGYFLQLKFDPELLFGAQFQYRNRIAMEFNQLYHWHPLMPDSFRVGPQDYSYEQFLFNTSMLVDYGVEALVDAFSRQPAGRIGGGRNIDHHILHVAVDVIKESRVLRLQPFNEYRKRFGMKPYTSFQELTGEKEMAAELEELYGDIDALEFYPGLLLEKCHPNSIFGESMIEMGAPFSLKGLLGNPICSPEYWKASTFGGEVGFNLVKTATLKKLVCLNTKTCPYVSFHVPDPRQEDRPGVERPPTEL
Briefly: COX-1 enzyme inhibition assay (PGE2 ELISA). The class given is biochemical. Conditions: mean ± SD (n = 4). The method, then: The anti-inflammatory effects of the isolated compounds were also screened on COX-1 and COX-2 enzymes inhibition at a final concentration of 20 µM.
Purified PGHS-1 from ram seminal vesicles for COX-1 and human recombinant PGHS-2 for COX-2 (Cayman Chemical Co., Ann Arbor, MI, USA) were used for the COX inhibition assays. Experiments were performed in a 96-well plate format, as previously described. Briefly, the incubation mixture contained 180 µL of 0.1 M TRIS/HCl-buffer pH 8.0 (Roth, Karlsruhe, Germany), 50 µM Na2EDTA (only for COX-2, Titriplex III, Merck, Darmstadt, Germany), 18 mM L-epinepherine bitartrate (Fluka, Buchs, Switzerland), 5 µM porcine hematin (MP Biomedicals LLC, Solon, OH, USA), and COX-1 or COX-2 enzymes (0.2 U/well). Ten microliters of tested compounds (dissolved in DMSO with a final concentration of 20 µM) was added and the mixture was pre-incubated for 5 min at room temperature. Thereafter, 10 µL of 5 µM arachidonic acid (Ann Arbor, Michigan USA) was added to the mixture and incubated for 20 min at 37 °C. The reaction was subsequently stopped by adding 10 µL of 10% (v/v) formic acid. The concentration of PGE2 generated in the reaction was quantitatively measured by a competitive PGE2 ELISA kit (Enzo Life Sciences Inc., Farmingdale, NY, USA) according to the manufacturer’s protocol and previous procedure. The absorbance at 405 nm was measured using a Hidex Sense Microplate Reader (Hidex, Turku, Finland). […] The assays were performed in duplicates and repeated in two independent experiments.

For experiment [2], the system named is Hep G2 (human hepatocellular carcinoma). The experiment in a line: MTT cytotoxic activity assay, Hep G2. The class given is cell-based. Conditions: HepG2, 72 h, mean ± SEM of three replicates. The method, then:
(§1) The cytotoxic activity of the isolated compounds was evaluated using the MTT viability assay with doxorubicin as the positive control and the results are presented in Table 2.
(§2) The MTT colorimetric method was performed to evaluate cytotoxic activity of the isolated compounds against human epidermoid carcinoma (KB; ATCC CCL17), human cervical carcinoma (HeLa S3; ATCC CCL2-2), human colon adenocarcinoma (HT-29; ATCC HTB-38), human breast adenocarcinoma (MCF-7; ATCC HTB-22), and human hepatocellular carcinoma (Hep G2; ATCC HB-8065) cell lines according to the previous method. […] After centrifugation at 1400 rpm for 5 min at 4 °C, the supernatant was decanted and DMSO (100 µL/well) was added to allow formazan product solubilization, which was subsequently measured by a microplate reader (Tecan Trading AG, Switzerland) at wavelength 550 nm. […] The results are expressed as the mean values of three replicates for three independent experiments. IC50 values were determined by graphical analysis using SigmaPlot 10 (Systat Software Inc., San Jose, CA, USA), obtained by plotting the cell viability percentage versus sample concentration.
Background: Tetrazolium dyes change colour on reduction, which living cells bring about.

Experiment [3] relates to MCF-7 (human breast adenocarcinoma). The experiment in a line: MTT cytotoxic activity assay, MCF-7. It is filed as cell-based. Particulars: MCF7, 72 h, mean ± SEM of three replicates. The method, then: as §1, §2
In experiment [4] the test system is four cancer cells (KB, HeLa S3, MCF-7, and Hep G2). Briefly: MTT cytotoxicity, four cancer cells stated together. Conditions: Homo sapiens; range over KB, HeLa S3, MCF-7, Hep G2; read-out: IC50 values against four cancer cells. It is filed as cell-based. The method, then: as §1, §2
Experiment [5] has as its system HT-29 (human colon adenocarcinoma). Briefly: MTT cytotoxic activity assay, HT-29. It is filed as cell-based. Particulars: 72 h, mean ± SEM of three replicates. The method, then:
as §1, §2

Experiment [6] relates to MCF-7 (human breast adenocarcinoma). Also on record: method as in PMID 30153471, PMID 33999337. Particulars: MTT; results based on previous work; read-out: IC50 ± SEM, MCF-7; cited from earlier work.
Experiment [7] has as its system Hep G2 (human hepatocellular carcinoma). The arrangement: method as in PMID 30153471, PMID 33999337. Particulars: MTT; results based on previous work; read-out: IC50 ± SEM, Hep G2; cited from earlier work.
The test system of experiment [8] is HT-29 (human colon adenocarcinoma). The arrangement: method as in PMID 30153471, PMID 33999337; key to IC50 ± SEM, HT-29: IC50 ≤ 10 µM = good cytotoxicity; 10 µM < IC50 ≤ 30 µM = weak cytotoxicity; inactive (IC50 > 30 µM). Particulars: MTT; results based on previous work; cited from earlier work.
Experiment [9] concerns four cancer cells (KB, HeLa S3, MCF-7, and Hep G2). Conditions: HeLa S3, MCF-7, Hep G2, earlier studies, read-out: IC50 values against four cancer cells; cited from earlier work.

The structures appear in SMILES notation. Like-named read-outs stand apart in the source and are kept apart here. Where only a bound is given, the exact number is not on record here.

Turning to `C[C@H]1Oc2c(c(O)c3c(=O)c4ccc(O)c(O)c4oc3c2CCC(C)(C)O)C1(C)C` [Compound 4, gerontoxanthone C hydrate], in [1], the inhibition (usually the percentage by which the read-out fell short of the control) at 20 µM was found to be 32.4 ± 7.9%. Besides, the IC50 (usually the point on the concentration scale where inhibition reaches its midpoint) was 6.3 ± 0.6 µM in experiment [2], 5.7 ± 0.3 µM in experiment [3], 5.6 to 7.5 µM in [4] and 20.3 ± 0.6 µM in experiment [5].
Regarding `C[C@@H]1Oc2cc(O)c3c(=O)c4ccc(O)c(O)c4oc3c2C1(C)C` [Compound 7, 2-deprenylrheediaxanthone B], the results for the IC50 in experiment [6], in [7] and in [9] were 6.5 ± 0.2 µM, 10 ± 0.2 µM and less than 10 µM, respectively. Besides, the inhibition at 20 µM in experiment [1] was 15.4 ± 7.5%. Moreover, the “IC50 ± SEM, HT-29” value in experiment [8] was “inactive”.
